From publication PMC12598616, “Design and optimization of caspase-1-responsive fluorescent probes for pyroptosis imaging and anti-pyroptosis drug screening” (Chemical Science, 2025)

Tests used:
[1] = test system: puncture-induced IVDD rat model; assay: In vivo fluorescence imaging of intervertebral disc degeneration; parameters: species or system Sprague-Dawley rat; conditions: intradiscal injection, 0, 1, 2, 4 weeks after puncture
Experimental: and signals were collected from 530 to 610 nm.
Chondrocytes spheroid cultivation
Chondrocytes were isolated from articular cartilage and resuspended in 1mL DMEM/F12 medium containing 10 μM ITS-A. A total of […] were counted and transferred into centrifuge tubes. The cells were incubated in these tubes with half of the medium changed periodically.
Intracellular imaging in chondrocytes and 3D cell spheroids
The chondrocytes or 3D cell spheroids were seeded in dishes and cultured overnight. Subsequently, the cells or spheroids were incubated with H2O2 for 30, 60 and 90 minutes. Afterward, the cells were further incubated in medium containing 5 μM FPy1 for 1 hour. Fluorescence imaging was then performed with an excitation of 514 nm, and signals were […]
Flow cytometry assays in THP-1 cells
The flow cytometry assays were performed to evaluate the response of FPy1 in THP-1 cells. THP-1 cells were seeded in 6-well plates at a density of 10^5 cells per well and cultured overnight. […] The results were analyzed with using FlowJo […]
Fixed cells or tissue sections were washed with PBS, permeabilized with 0.2 % Triton X-100 (Sigma–Aldrich) for 20 minutes, and blocked with 5 % bovine serum albumin for 1 hour at 37 °C. […] Staining results were examined under a fluorescence microscope (Olympus, IX83-FV3000) and quantified using ImageJ (Bethesda, MD, V1.8.0, NIH). […]

[2] = test system: osteoarthritis mouse model (ACL transection); assay: In vivo fluorescence imaging of osteoarthritis; parameters: species or system C57BL/6J mouse; conditions: injected into joint cavity; 0, 7, 14, 21 days post-surgery
Experimental: The decline in chondrocyte function plays a crucial role in the pathogenesis of OA. Inflammasome-mediated chondrocyte pyroptosis has been closely associated with matrix degradation and cartilage degeneration in OA.[38] To model OA in vitro, primary chondrocytes were stimulated with H2O2 (2 mM) for different durations, followed by staining with FPy1 (5 μM) and fluorescence imaging to monitor the progression of pyroptosis under oxidative stress. […] To better mimic the in vivo pathological features of OA, primary chondrocytes were also cultured as three-dimensional spheroids and stimulated with H2O2. […] Furthermore, we evaluated the capability of FPy1 to monitor pyroptosis progression at different stages of OA in a mouse model. […] The pathological manifestations in the corresponding tissues became more pronounced with longer modeling periods, consistent with the fluorescence imaging results obtained using FPy1. […]
Harvested rat discs were fixed in 4 % buffered paraformaldehyde for 24 hours, decalcified in 10 % ethylenediaminetetraacetic acid (EDTA, Solarbio, E8030) solution for 1 month, embedded in paraffin, and sectioned at a thickness of 5 μm. […] Stained sections were evaluated by three independent raters, blinded to the research protocol, and measurements were averaged for statistical analysis. […]
In vivo fluorescence imaging of intervertebral disc degeneration […]

Substance: –FLTDG– [FPy1, RhoB donor, hNR quencher]
- in vivo fluorescence at puncture site ([1]; Co5/6, Co6/7, Co7/8): significant enhancement of fluorescence at the corresponding areas
- differentiation of IVDD stages by fluorescence intensity [1]: could significantly differentiate the four different stages of IVDD
- in vivo fluorescence signals in knee joints [2]: gradually increasing as the modeling duration was extended
